From patent US9573961B2, “Inhibitors of the renal outer medullary potassium channel” (Merck Sharp & Dohme Corp., priority 2012, dated 2017)
Like-named read-outs stand apart in the source and are kept apart here.

Experiments:
Kir1.1 (ROMK1) = Kir1.1 (ROMK1) (Homo sapiens (Human), UniProt P48048); experiment: Electrophysiology Assay (whole cell voltage clamp, IonWorks Quattro); format: cell-based; conditions: block during voltage step to 0 mV
Procedure: Chinese hamster ovary cells stably expressing Kir1.1 channels were maintained in T-75 flasks in cell culture media in a humidified 10% CO2 incubator at 37° C. Prior to an experiment, Kir1.1 expression was induced by overnight incubation with 1 mM sodium butyrate. […] After centrifugation, the cell pellet was resuspended in approximately 4.0 mL of bath solution and placed in the IonWorks instrument. The intracellular solution consisted of (in mM): 80 K gluconate, 40 KCl, 20 KF, 3.2 MgCl2, 3 EGTA, 5 Hepes, pH 7.4. Electrical access to the cytoplasm was achieved by perforation in 0.13 mg/mL amphotericin B for 4 min. […] Voltage protocols and current recordings were performed using the IonWorks HT software/hardware system. Currents were sampled at 1 kHz. No correction for liquid junction potentials was used. The test pulse, consisting of a 100 ms step to 0 mV from a holding potential of −70 mV, followed by a 100 ms voltage ramp from −70 mV to +70 mV, was applied before and after a 6 min compound incubation period. Test compounds were prepared by diluting DMSO stock solutions into the bath solution at 3× the final concentration and placed in the instrument in 96-well polypropylene plates. Current amplitudes were measured using the IonWorks software.

hROMK (hKir1.1) = hROMK (hKir1.1) (Homo sapiens (Human), UniProt P48048); experiment: Thallium Flux Assay (ROMK channel functional thallium flux, FLIPR-Tetra); format: cell-based
Procedure: Cell Culture Conditions—HEK293 cells stably expressing hROMK (hKir1.1) were grown at 37° C. in a 10% CO2 humidified incubator in complete growth media: Dulbecco's Modified Eagle Medium supplemented with non-essential amino acids, Penicillin/Streptomycin/Glutamine, G418 and FBS. At >80% confluency, aspirate the media from the flask and rinse with 10 mL Calcium/Magnesium-free PBS. […] To dislodge the cell, gently bang the side of the flask with your hand. Triturate the cells completely and then transfer the cells to 25 mL complete media. Centrifuge at 1,500 rpm for 6 min followed by resuspension in complete growth media and determine cell concentration. […] Under ideal growth conditions and appropriate tissue culture practices, this cell line is stable for 40-45 passages.
FluxOR Kit Components (Invitrogen F10017) • FluxOR™ Reagent (Component A) • FluxOR™ Assay Buffer (Component B)—10× Concentrate • PowerLoad™ Concentrate (Component C)—100× Concentrate • Probenecid (Component D)—Lyophilized sample is kept at −20° C. Water soluble, 100× after solubilization in 1 mL water. […] Store at 4° C. • Thallium sulfate (Tl2SO4) Concentrate (Component G)—50 mM in water. Store at 4° C. • DMSO (dimethyl sulfoxide, Component H)—1 mL (100%)
Can be stored at room temperature • Stimulant Buffer (prepared at 5× final concentration in 1× FluxOR™ Chloride-Free Buffer): 7.5 mM Thallium sulfate and 0.75 mM Potassium sulfate (to give a final assay concentration of 3 mM Thallium/0.3 mM Potassium). Store at 4° C. when not in use. If kept sterile, this solution is good for months.
Assay Protocol—The ROMK channel functional thallium flux assay is performed in 384 wells, using the FLIPR-Tetra instrument. HEK-hKir1.1 cells are seeded in Poly-D-Lysine microplates and kept in a 37° C.-10% CO2 incubator overnight. On the day of the experiment, the growth media is replaced with the FluxOR™ reagent loading buffer and incubated, protected from light, at ambient temperature (23-25° C.) for 90 min. The loading buffer is replaced with assay buffer±test compound followed by 30 min incubation at ambient temperature, where the Thallium/Potassium stimulant is added to the microplate.
Step Protocol • 1. Seed HEK-hKir1.1 cells (50 μl at 20,000 cells/well) in 384-well PDL coated Microplates • 2. Allow cells to adhere overnight in humidified 37° C./10% CO2 incubator • 3. Completely remove cell growth media from microplate and replace with 25 μl loading buffer • 4. Incubate Microplate at room temperature, protected form light, for 90 min • 5. Remove loading buffer and replace with 25 μl 1× Assay Buffer±test compound. • 6. Incubate microplate at room temperature, protected from light, for 30 min • 7. […] Excitation=400 nm, Emission=460 & 580 nm. Collect data for ˜10 min.
Data Calculation—The fluorescence intensity of wells containing 3 μM of a standard control ROMK inhibitor of the present invention is used to define the ROMK-sensitive component of thallium flux. Fluorescence in the presence of test compounds is normalized to control values to provide % fluorescence change.

[1] = Electrophysiology IC50, Chinese hamster ovary cells stably expressing Kir1.1
[2] = HEK293 cells stably expressing hROMK (hKir1.1), read-out: Thallium Flux IC50
[3] = Chinese hamster ovary cells stably expressing Kir1.1, read-out: Electrophysiology IC50

Sequence of Kir1.1 (ROMK1) (P48048 whole entry): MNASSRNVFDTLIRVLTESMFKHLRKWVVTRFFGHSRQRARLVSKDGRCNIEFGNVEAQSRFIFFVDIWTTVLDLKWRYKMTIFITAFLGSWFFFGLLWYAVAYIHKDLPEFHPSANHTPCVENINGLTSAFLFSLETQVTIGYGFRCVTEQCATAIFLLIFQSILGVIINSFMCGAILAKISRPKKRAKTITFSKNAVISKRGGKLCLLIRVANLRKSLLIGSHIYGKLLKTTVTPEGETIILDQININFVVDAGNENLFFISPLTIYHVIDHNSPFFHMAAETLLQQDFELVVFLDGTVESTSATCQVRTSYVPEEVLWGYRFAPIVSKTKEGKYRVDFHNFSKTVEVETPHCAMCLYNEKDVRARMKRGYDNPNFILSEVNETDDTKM
Sequence of hROMK (hKir1.1) (P48048 whole entry): as above

SMILES | IC50 (Kir1.1 (ROMK1); [1]) [nM] | IC50 (hROMK (hKir1.1); [2]) [nM] | IC50 (Kir1.1 (ROMK1); [3]) [nM] | IC50 (hROMK (hKir1.1); Thallium Flux IC50) [nM] | IC50 (hROMK (hKir1.1); read-out: Thallium Flux IC50) [nM]
COc1cc(CC(=O)N2CCN3C[C@@H](c4ccc5c(c4)COC5=O)OC[C@@H]3C2)c(F)cc1C#N [Example 10, 5-fluoro-2-methoxy-4-{2-oxo-2-[(3R,9aS)-3-(1-oxo-1,3-dihydro-2-benzofuran-5-yl)hexahydropyrazino[2,1-c][1,4]oxazin-8(1H)-yl]ethyl}benzonitrile] | 90 | 130 | – | – | –
O=C(C1CCc2cc(-n3cnnn3)ccc21)N1CCN2C[C@@H](c3ccc4nonc4c3)OC[C@@H]2C1 (stereo partly drawn) [Example 78, (3R,9aS)-3-(2,1,3-benzoxadiazol-5-yl)-8-{[5-(1H-tetrazol-1-yl)-2,3-dihydro-1H-inden-1-yl]carbonyl}octahydropyrazino[2,1-c][1,4]oxazine] | – | 210 | 100 | – | –
Cc1c([C@@H]2CN3CCN(C(=O)Cc4c(F)cc(-n5cnnn5)cc4F)C[C@H]3CN2)ccc(F)c1C#N [Example 102] | 160 | – | – | 150 | –
Cc1c([C@@H]2CN3CCN(C(=O)Cc4ccc5c(c4)COC5=O)C[C@H]3CO2)ccc(F)c1C#N [Example 24, 6-fluoro-2-methyl-3-{(3R,9aS)-8-[(1-oxo-1,3-dihydro-2-benzofuran-5-yl)acetyl]octahydropyrazino[2,1-c][1,4]oxazin-3-yl}benzonitrile] | 80 | – | – | – | 60
Cc1c([C@H]2CN3CCN(C(=O)C4CCCc5cc(-n6cnnn6)ccc54)C[C@H]3CO2)ccc2c1COC2=O (single isomer, unassigned) [Example 88] | – | 380 | 460 | – | –
Cc1c([C@@H]2CN3CCN(C(=O)Cc4cc(-n5cnnn5)ccc4F)C[C@@H]3CO2)ccc(F)c1C#N [Example 59, 6-fluoro-3-[(3R,9aR)-8-{[2-fluoro-5-(1H-tetrazol-1-yl)phenyl]acetyl}octahydropyrazino[2,1-c][1,4]oxazin-3-yl]-2-methylbenzonitrile] | – | 360 | 140 | – | –
Cc1c([C@H]2CN3CCN(C(=O)C4Cc5ccc(-n6cnnn6)cc5C4)C[C@H]3CO2)ccc(F)c1C#N (stereo partly drawn) [Example 44, 6-fluoro-2-methyl-3-[(3S,9aS)-8-{[5-(1H-tetrazol-1-yl)-2,3-dihydro-1H-inden-2-yl]carbonyl}octahydropyrazino[2,1-c][1,4]oxazin-3-yl]benzonitrile] | – | 370 | 160 | – | –
Cc1c([C@H]2CN3CCN(C(=O)Cc4cccc(-n5cnnn5)c4)C[C@@H]3CO2)ccc(F)c1C#N [Example 57, 6-fluoro-2-methyl-3-[(3S,9aR)-8-{[3-(1H-tetrazol-1-yl)phenyl]acetyl}octahydropyrazino[2,1-c][1,4]oxazin-3-yl]benzonitrile] | – | 140 | 50 | – | –
Cc1c([C@H]2CN3CCN(C(=O)Cc4ccc(-n5cnnn5)cc4)C[C@H]3CN2)ccc2c1COC2=O [Example 100] | 250 | 430 | – | – | –
Cc1c([C@@H]2CN3CCN(C(=O)Cc4c(F)cc(-n5cnnn5)cc4F)C[C@@H]3CO2)ccc(F)c1C#N [Example 53, 3-[(3R,9aR)-8-{[2,6-difluoro-4-(1H-tetrazol-1-yl)phenyl]acetyl}octahydropyrazino[2,1-c][1,4]oxazin-3-yl]-6-fluoro-2-methylbenzonitrile] | – | 180 | 110 | – | –
Cc1c([C@@H]2CN3CCN(C(=O)Cc4ccc(-n5cnnn5)cc4C#N)C[C@@H]3CO2)ccc(F)c1C#N [Example 68, 3-[(3R,9aR)-8-{[2-cyano-4-(1H-tetrazol-1-yl)phenyl]acetyl}octahydropyrazino[2,1-c][1,4]oxazin-3-yl]-6-fluoro-2-methylbenzonitrile] | 120 | 210 | – | – | –
Cc1cc(F)c(C#N)cc1[C@@H]1CN2CCN(C(=O)Cc3ccc(-n4cnnn4)cc3)C[C@H]2CO1 [Example 38, 2-fluoro-4-methyl-5-[(3R,9aS)-8-{[4-(1H-tetrazol-1-yl)phenyl]acetyl}octahydropyrazino[2,1-c][1,4]oxazin-3-yl]benzonitrile] | – | 110 | 180 | – | –
Cc1c([C@@H]2CN3CCN(C(=O)C4CCc5cc(-n6cnnn6)ccc54)C[C@H]3CO2)csc1C#N (single isomer, unassigned) [Example 83] | – | 140 | 90 | – | –
Cc1c([C@@H]2CN3CCN(C(=O)Cc4ccc(-n5cnnn5)cc4Cl)C[C@@H]3CO2)ccc(F)c1C#N [Example 69, 3-[(3R,9aR)-8-{[2-chloro-4-(1H-tetrazol-1-yl)phenyl]acetyl}octahydropyrazino[2,1-c][1,4]oxazin-3-yl]-6-fluoro-2-methylbenzonitrile] | 110 | – | – | – | 100
C[C@@H]1Cc2cc([C@@H]3CN4CCN(C(=O)Cc5c(F)cc(-n6cnnn6)cc5F)C[C@H]4CN3)ccc2C(=O)O1 [Example 105] | 180 | 360 | – | – | –
COc1ccc([C@H]2CN3CCN(C(=O)C4CCc5cc(-n6cnnn6)ccc54)C[C@H]3CO2)c(C)c1C#N (stereo partly drawn) [Example 62, 6-methoxy-2-methyl-3-[(3S,9aS)-8-{[5-(1H-tetrazol-1-yl)-2,3-dihydro-1H-inden-1-yl]carbonyl}octahydropyrazino[2,1-c][1,4]oxazin-3-yl]benzonitrile] | – | 200 | 650 | – | –
Cc1c([C@@H]2CN3CCN(C(=O)C4CCc5cc(-n6cnnn6)ccc54)C[C@H]3CO2)ccc(F)c1C#N (mixture of isomers) [Example 2A, 3-((3R,9aS)-8-(5-(1H-tetrazol-1-yl)-2,3-dihydro-1H-indene-1-carbonyl)octahydropyrazino[2,1-c][1,4]oxazin-3-yl)-6-fluoro-2-methylbenzonitrile] | – | 170 | 140 | – | –
Cc1c([C@@H]2CN3CCN(C(=O)Cc4c(F)cc(-n5cnnn5)cc4F)C[C@H]3CO2)ccc(F)c1C#N [Example 52, 3-[(3R,9aS)-8-{[2,6-difluoro-4-(1H-tetrazol-1-yl)phenyl]acetyl}octahydropyrazino[2,1-c][1,4]oxazin-3-yl]-6-fluoro-2-methylbenzonitrile] | – | 170 | 70 | – | –
Cc1c([C@@H]2CN3CCN(C(=O)C4CCc5cc(-n6cnnn6)ccc54)C[C@H]3CO2)ccc(F)c1C#N (mixture of isomers) [Example 2B, 3-((3R,9aS)-8-(5-(1H-tetrazol-1-yl)-2,3-dihydro-1H-indene-1-carbonyl)octahydropyrazino[2,1-c][1,4]oxazin-3-yl)-6-fluoro-2-methylbenzonitrile] | – | 290 | 150 | – | –
Cc1c([C@H]2CN3CCN(C(=O)Cc4cccc(-n5cnnn5)c4)C[C@H]3CO2)ccc(F)c1C#N [Example 46, 6-fluoro-2-methyl-3-[(3S,9aS)-8-{[3-(1H-tetrazol-1-yl)phenyl]acetyl}octahydropyrazino[2,1-c][1,4]oxazin-3-yl]benzonitrile] | – | 240 | 140 | – | –
